Entries after “also recorded” stand apart in the source; their conditions may differ.
Tests used:
[1] = test system: fascin-deficient singed-mutant neurons; experiment: Primary neuron culture neurotoxicity screen, fascin-deficient neurons; details: 3 days in vitro; for neurotoxic defects: 10 and 50 μM, phase-contrast morphology; for beads-on-a-string (BOS) defect (intra-neurite nodules): singed (sn) mutant larval CNS neurons; for BOS effect in sn-mutant, fascin-deficient neurons relative to wild-type: at each dose; for BOS density versus dose: wild-type and sn-mutant neurons, randomly selected neurons
Excerpt: Following this enzymatic treatment, the tissue is washed and then mechanically triturated in culture medium to dissociate it into single cells.

[2] = test system: wild-type (OreRC) neurons
[3] = test system: cultured neurons with mutations in the Drosophila fragile X mental retardation 1 gene (dfmr1); type: cell-based
Excerpt: In this case, the genetic control was designed (Michel et al. (2004). J. Neurosci., 23:5798-5809) to be identical in every possible way, except for the presence or absence of a normal dfmr1 gene.

Structure (SMILES) | neurotoxic defects [1] | beads-on-a-string (BOS) defect (intra-neurite nodules) [1] | also measured
COc1ccc(C[C@H]2NC[C@H](O)[C@H]2OC(C)=O)cc1 [anisomycin] | overt neurotoxic defects |  | 
CC(C)c1c(C(=O)Nc2ccccc2)c(-c2ccccc2)c(-c2ccc(F)cc2)n1CC[C@@H](O)C[C@@H](O)CC(=O)O [atorvastatin] |  | beads-on-a-string (BOS) defect; also recorded: induced | neurite outgrowth [2]: inhibition of neurite outgrowth
C[C@@H]1C[C@@H]([C@H](O)CC2CC(=O)NC(=O)C2)C(=O)[C@@H](C)C1 [cycloheximide] | overt neurotoxic defects |  | 
CC[C@H](C)C(=O)O[C@H]1C[C@@H](C)C=C2C=C[C@H](C)[C@H](CC[C@@H]3C[C@@H](O)CC(=O)O3)[C@H]21 [lovastatin] |  | beads-on-a-string (BOS) defect; also recorded: induced | 
C[C@@H]1O[C@@H](O[C@H]2C[C@@H](O)[C@]3(CO)[C@H]4[C@H](O)C[C@]5(C)[C@@H](C6=CC(=O)OC6)CC[C@]5(O)[C@@H]4CC[C@]3(O)C2)[C@H](O)[C@H](O)[C@H]1O [ouabain] | overt neurotoxic defects |  | 
CC(=O)O[C@H]1C(=O)[C@@]2(C)[C@H]([C@H](OC(=O)c3ccccc3)[C@]3(O)C[C@H](OC(=O)[C@H](O)[C@@H](NC(=O)c4ccccc4)c4ccccc4)C(C)=C1C3(C)C)[C@]1(OC(C)=O)CO[C@@H]1C[C@@H]2O [paclitaxel] | overt neurotoxic defects |  | 
CC[C@H](C)C(=O)O[C@H]1C[C@H](O)C=C2C=C[C@H](C)[C@H](CC[C@@H](O)C[C@@H](O)CC(=O)O)[C@H]21 [pravastatin] |  | beads-on-a-string (BOS) defect; also recorded: induced | BOS effect in sn-mutant, fascin-deficient neurons relative to wild-type [1]: enhanced the sensitivity; BOS density versus dose [1]: increased with dose; severity of BOS defect in dfmr1-mutant neurons versus control neurons [3]: less severe BOS defect
CC(C)c1nc(N(C)S(C)(=O)=O)nc(-c2ccc(F)cc2)c1/C=C/[C@@H](O)C[C@@H](O)CC(=O)O [rosuvastatin] |  | beads-on-a-string (BOS) defect; also recorded: induced | BOS effect in sn-mutant, fascin-deficient neurons relative to wild-type [1]: enhanced the sensitivity; BOS density versus dose [1]: increased with dose
C[CH2][Hg][S]c1ccccc1C(=O)[O-].[Na+] [thimerosal] | overt neurotoxic defects |  | 
